Measured values taken from publication PMC8533391 (2021).

Tested on: d(GTTAATCGCTGG) double-stranded DNA 12-oligomer (DNA, duplex) GTTAATCGCTGG/CCAGCGATTAAC
Assay: UV melting at 260 nm
Conditions: Na+ (0.05 mM NaOH), 10 μM compound, 2.5 μM DNA, cacodylate, pH 7.2

ΔTm (derived from two Tm (47.4 ± 0.6, free 48.3 ± 0.3)) [°C] | ΔTm (derived from two Tm (46.2 ± 0.8, free 48.3 ± 0.3)) [°C] | Structure (SMILES)
-0.9 | – | C(=N\[C@H]1CC[C@H](/N=C/c2nccs2)CC1)/c1nccs1
– | -2.1 | C(=N\[C@H]1CC[C@H](/N=C/c2nccs2)CC1)/c1nccs1.C(=N\[C@H]1CC[C@H](/N=C/c2nccs2)CC1)/c1nccs1.[Ag+].[Ag+]
